# Measured values from PubChem BioAssay (NCI).
#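 The compound was tested at five concentrations on cells cultured in 96-well plates, with a 48-hour exposure period. GI50 is the concentration that inhibits growth by half. TGI: concentration producing complete growth inhibition.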
# How the values were obtained:
# Assay in all cases: DTP human tumour cell line panel, 48 h
# SN12C renal = system: SN12C renal
# OVCAR-4 ovarian = system: OVCAR-4 ovarian
# SF-539 CNS = system: SF-539 CNS
# IGROV1 ovarian = system: IGROV1 ovarian
# SK-MEL-5 melanoma = system: SK-MEL-5 melanoma
# A498 renal = system: A498 renal
# K-562 leukemia = system: K-562 leukemia
# HOP-92 NSCLC = system: HOP-92 NSCLC
# SK-MEL-28 melanoma = system: SK-MEL-28 melanoma
# UO-31 renal = system: UO-31 renal
Compound,TGI (SN12C renal) [µM],TGI (OVCAR-4 ovarian) [µM],TGI (SF-539 CNS) [µM],TGI (IGROV1 ovarian) [µM],TGI (SK-MEL-5 melanoma) [µM],TGI (A498 renal) [µM],TGI (K-562 leukemia) [µM],TGI (HOP-92 NSCLC) [µM],TGI (SK-MEL-28 melanoma) [µM],TGI (UO-31 renal) [µM],GI50 (SN12C renal) [µM],GI50 (OVCAR-4 ovarian) [µM],GI50 (SF-539 CNS) [µM],GI50 (IGROV1 ovarian) [µM],GI50 (SK-MEL-5 melanoma) [µM],GI50 (A498 renal) [µM],GI50 (K-562 leukemia) [µM],GI50 (HOP-92 NSCLC) [µM],GI50 (SK-MEL-28 melanoma) [µM],GI50 (UO-31 renal) [µM]
CCN(CC)c1ccc(C(=O)c2ccccc2C(=O)O)c(O)c1,> 100,> 100,> 100,> 100,> 100,> 100,> 100,> 100,> 100,> 100,,,,,,,,,,
CCCNC1=C(C(=O)OCC)C(=O)CO1,> 100,> 100,> 100,> 100,> 100,> 100,> 100,> 100,> 100,> 100,,,,,,,,,,
Cn1cc(-c2ccc3occ(-c4cccc(-c5ccncc5)c4)c3n2)cn1,> 100,> 100,5.54,> 100,1.63,0.832,> 100,> 100,> 100,> 100,1.32,2.7,0.734,0.592,0.406,0.159,0.284,2.76,1.77,1.46
COc1ccc(OC)c(NC(=O)C2=C(C)NC(C)=C(C(=O)Nc3cc(OC)ccc3OC)C2c2ccccc2)c1,> 100,> 100,> 100,> 100,> 100,> 100,> 100,> 100,> 100,> 100,,,,,,,,,,
COc1cc(C(=O)C/C(CCCC(=O)Nc2ccccc2[N+](=O)[O-])=N/NC(=O)c2cc3ccccc3cc2O)ccc1O,> 100,> 100,> 100,> 100,> 83.7,> 100,> 100,> 100,> 100,> 100,,,,,,,,,,
